Key:
A549 [1] = test: Cytotoxicity against human A549 cells assessed as reduction in cell viability after 48 hrs by MTT assay; type: functional, cell-based; conditions: A549, 48 h
HepG2 [2] = test: Cytotoxicity against human HepG2 cells assessed as reduction in cell viability after 48 hrs by MTT assay; type: functional, cell-based; conditions: HepG2, 48 h
[3] = Cytotoxicity against human BCG823 cells assessed as reduction in cell viability after 48 hrs by MTT assay; type: functional, cell-based; conditions: BCG823, 48 h
A549 [4] = test: Potency index, ratio of 5-fluorouracil IC50 to compound IC50 for human A549 cells; type: functional
HepG2 [5] = test: Potency index, ratio of 5-fluorouracil IC50 to compound IC50 for human HepG2 cells; type: functional
[6] = Potency index, ratio of 5-fluorouracil IC50 to compound IC50 for human BCG823 cells; type: functional

Row | Structure (SMILES) | IC50 (A549 [1]) [µM] | IC50 (HepG2 [2]; read-out: IC50) [µM] | IC50 (HepG2 [2]; read-out: pIC50 (converted)) [µM] | IC50 [3] [µM] | Ratio IC50 (A549 [4]) | Ratio IC50 (HepG2 [5]) | Ratio IC50 [6]
1 | COc1c(OCc2ncc(C)o2)cc(O)c2c(=O)cc(-c3ccccc3)oc12 | > 100 | 20.2 | 20.4 |  |  |  | 
2 | COc1c(OCCCCN2CCNCC2)cc(O)c2c(=O)cc(-c3ccccc3)oc12 | 1.74 | 1.07 | 1.07 | 0.98 | 9 | 18 | 17
3 | O=c1cc(-c2ccccc2)oc2c(OCCCCNC3CCCCC3)c(O)cc(O)c12 |  | 10.9 | 11 | 48.6 |  |  | 
4 | COc1c(O)cc(O)c2c(=O)cc(-c3ccc(Cl)cc3)oc12 |  | 34.2 | 33.9 |  |  |  | 
5 | COc1c(OCCCNCc2ccccc2)cc(O)c2c(=O)cc(-c3ccccc3)oc12 | 1.57 | 8.12 | 8.13 | 9.93 |  |  | 
6 | COc1c(OCCCCN(CCO)CCO)cc(O)c2c(=O)cc(-c3ccccc3)oc12 | 1.26 | 2.64 | 2.63 | 5.89 |  |  | 
7 | CCN(CC)CCCOc1c(O)cc(O)c2c(=O)cc(-c3ccccc3)oc12 | > 100 | 67.5 | 67.6 |  |  |  | 
8 | O=c1cc(-c2ccccc2)oc2c(OCCN3CCOCC3)c(O)cc(O)c12 | > 100 | 39.9 | 39.8 |  |  |  | 
9 | COc1c(O)cc(O)c2c(=O)cc(-c3ccc(F)cc3Br)oc12 |  | 33.5 | 33.9 |  |  |  | 
10 | O=c1cc(-c2ccccc2)oc2c(OCCCCN3CCOCC3)c(O)cc(O)c12 | 82.3 | 15.1 | 15.1 |  |  |  | 
11 | CN(C)CCOc1c(O)cc(O)c2c(=O)cc(-c3ccccc3)oc12 | > 100 | 40 | 39.8 |  |  |  | 
12 | CNCCCCOc1c(O)cc(O)c2c(=O)cc(-c3ccccc3)oc12 |  | 97 | 97.7 | > 100 |  |  | 
13 | COc1c(OCCCCN2CCN(C)CC2)cc(O)c2c(=O)cc(-c3ccccc3)oc12 | 1.5 | 1.12 | 1.12 | 5.3 |  |  | 
14 | CC(C)NCCCCOc1c(O)cc(O)c2c(=O)cc(-c3ccccc3)oc12 |  | 29.9 | 30.2 | 71.2 |  |  | 
15 | COc1c(OCCCN2CCOCC2)cc(O)c2c(=O)cc(-c3ccccc3)oc12 | 2.3 | 6.5 | 6.46 | 3.7 |  |  | 
16 | CC(C)NCCOc1c(O)cc(O)c2c(=O)cc(-c3ccccc3)oc12 |  | 14.1 | 14.1 | > 100 |  |  | 
17 | O=c1cc(-c2ccccc2)oc2c(OCCCN3CCOCC3)c(O)cc(O)c12 | > 100 | 21.5 | 20.9 |  |  |  | 
18 | CCCNCCCCOc1c(O)cc(O)c2c(=O)cc(-c3ccccc3)oc12 |  | 9.99 | 10 | 51 |  |  | 
19 | CCN(CC)CCOc1c(O)cc(O)c2c(=O)cc(-c3ccccc3)oc12 | > 100 | 68.1 | 67.6 |  |  |  | 
20 | CCN(CC)CCCCOc1cc(O)c2c(=O)cc(-c3ccccc3)oc2c1OC | 1 | 1.72 | 1.74 | 6.17 |  |  | 
21 | CN(C)CCCCOc1c(O)cc(O)c2c(=O)cc(-c3ccccc3)oc12 | > 100 | 35.7 | 35.5 |  |  |  | 
22 | COc1c(OCc2cnoc2C)cc(O)c2c(=O)cc(-c3ccccc3)oc12 | > 100 | 21.7 | 21.9 |  |  |  | 
23 | CN(C)CCCOc1c(O)cc(O)c2c(=O)cc(-c3ccccc3)oc12 | > 100 | 41.8 | 41.7 |  |  |  | 
24 | COc1c(OCCCN(CCO)CCO)cc(O)c2c(=O)cc(-c3ccccc3)oc12 | 3 | 3.79 | 3.8 | 6.45 |  |  | 
25 | CC(CO)NCCOc1c(O)cc(O)c2c(=O)cc(-c3ccccc3)oc12 (stereo not given) |  | 43.5 | 43.7 | 92.2 |  |  | 
26 | CNCCOc1c(O)cc(O)c2c(=O)cc(-c3ccccc3)oc12 |  | 64.2 | 64.6 | 59.9 |  |  | 

Row | Structure (SMILES) | IC50 (A549 [1]) [µM] | IC50 (HepG2 [2]; read-out: IC50) [µM] | IC50 (HepG2 [2]; read-out: pIC50 (converted)) [µM] | IC50 [3] [µM] | Ratio IC50 (A549 [4]) | Ratio IC50 (HepG2 [5]) | Ratio IC50 [6]
27 | COc1c(OCCCN2CCN(C)CC2)cc(O)c2c(=O)cc(-c3ccccc3)oc12 | 9.9 | 31.6 | 31.6 | 52.7 |  |  | 
28 | COc1c(OCCCCN2CCCC2)cc(O)c2c(=O)cc(-c3ccccc3)oc12 | 1.53 | 3.61 | 3.63 | 6.34 |  |  | 
29 | COc1c(OCCCCN2CCCCC2)cc(O)c2c(=O)cc(-c3ccccc3)oc12 | 1.15 | 1.97 | 1.95 | 18.2 |  |  | 
30 | O=c1cc(-c2ccccc2)oc2c(OCCCN3CCCC3)c(O)cc(O)c12 | > 100 | 58.5 | 58.9 |  |  |  | 
31 | CN1CCN(CCOc2c(O)cc(O)c3c(=O)cc(-c4ccccc4)oc23)CC1 | > 100 | 56.6 | 56.2 |  |  |  | 
32 | COc1c(OCCCCNCc2ccccc2)cc(O)c2c(=O)cc(-c3ccccc3)oc12 | 4.59 | 45.7 | 45.7 | 48.1 |  |  | 
33 | COc1c(O)cc(O)c2c(=O)cc(-c3ccc(F)cc3)oc12 |  | 43.9 | 43.7 |  |  |  | 
34 | COc1c(O)cc(O)c2c(=O)cc(-c3ccc(C)cc3)oc12 |  | 24.9 | 25.1 |  |  |  | 
35 | CN1CCN(CCCOc2c(O)cc(O)c3c(=O)cc(-c4ccccc4)oc23)CC1 | > 100 | 42.6 | 42.7 |  |  |  | 
36 | COc1c(OCCCN2CCCC2)cc(O)c2c(=O)cc(-c3ccccc3)oc12 | 1.39 | 15.4 | 15.5 | 17.9 |  |  | 
37 | COc1c(O)cc(O)c2c(=O)cc(-c3ccc(Br)cc3)oc12 |  | 38.2 | 38 |  |  |  | 
38 | O=c1cc(-c2ccccc2)oc2c(OCCN3CCCC3)c(O)cc(O)c12 | 67.7 | 68.5 | 69.2 |  |  |  | 
39 | COc1c(OCc2nc3ccccc3[nH]2)cc(O)c2c(=O)cc(-c3ccccc3)oc12 | > 100 | 29.4 | 29.5 |  |  |  | 
40 | COc1c(OCCCN2CCNCC2)cc(O)c2c(=O)cc(-c3ccccc3)oc12 | 10.1 | 9.14 | 9.12 | 12 |  |  | 
41 | CN1CCN(CCCCOc2c(O)cc(O)c3c(=O)cc(-c4ccccc4)oc23)CC1 | > 100 | 15.1 | 15.1 |  |  |  | 
42 | CCCCNCCCCOc1c(O)cc(O)c2c(=O)cc(-c3ccccc3)oc12 |  | 38.9 | 38.9 | 61.9 |  |  | 
43 | COc1c(O)cc(O)c2c(=O)cc(-c3cccc(F)c3)oc12 |  | 59.4 | 58.9 |  |  |  | 
44 | CCN(CC)CCCOc1cc(O)c2c(=O)cc(-c3ccccc3)oc2c1OC | 1.83 | 3.33 | 3.31 | 13.3 |  |  | 
45 | O=c1cc(-c2ccccc2)oc2c(OCCNCCO)c(O)cc(O)c12 |  | 57 | 57.5 | 59.8 |  |  | 
46 | CCCCNCCOc1c(O)cc(O)c2c(=O)cc(-c3ccccc3)oc12 |  | 57.2 | 57.5 | 72.4 |  |  | 
47 | COc1c(OCCCCN2CCOCC2)cc(O)c2c(=O)cc(-c3ccccc3)oc12 | 1.52 | 3.3 | 3.31 | 5.3 |  |  | 
48 | CCCNCCOc1c(O)cc(O)c2c(=O)cc(-c3ccccc3)oc12 |  | 98.4 | 97.7 | 63 |  |  | 
49 | O=c1[nH]cc(F)c(=O)[nH]1 [FLUOROURACIL] | 16.1 | 17.2 |  | 10.1 |  |  | 
50 | COc1ccc(-c2cc(=O)c3c(O)cc(O)c(OC)c3o2)cc1 [GALANGUSTIN] |  | 42.4 | 42.7 |  |  |  | 
51 | COc1c(O)cc(O)c2c(=O)cc(-c3ccccc3)oc12 [WOGONIN] | 15.8 | 19 | 19.1 | 16.5 |  |  | 

Source: ChEMBL document CHEMBL4002633, “Synthesis, evaluation and quantitative structure-activity relationship (QSAR) analysis of Wogonin derivatives as cytotoxic agents” (Bioorg Med Chem Lett, 2017)
